# According to patent EP0066415A2, “N-(arylthioalkyl)-N'-(aminoalkyl)ureas” (A.H. ROBINS COMPANY, INCORPORATED, priority 1981, dated 1982):
# Legend:
# [1] = system: Coronary Artery Ligation Induced Arrhythmias; test: Coronary artery ligation induced arrhythmias; assay type: in vivo, Adult mongrel dogs; conditions: I.V.; Coronary Artery Ligation Induced arrhythmia; conscious dogs; infusion into saphenous vein at 0.5 mg/kg/min
# Procedure: Adult mongrel dogs which were in the conscious state were used for the test and cardiac arrhythmias were induced by prior (22-24 hr) surgical preparation in which blood flow through a coronary artery was occluded by use of a constrictor device as reported by Smith et al, 1973. A Grass Model 79 polygraph was used for recording the electrocardiogram (Grass 7P4 preamplifier).
# The test compound was administered by infusion (Harvard Model 942 Infusion Pump) into a sapheneous vein to one group of dogs at a rate of 0.5 mg/kg/min. Concentration of compound was adjusted according to the weight of the dog to allow a volume of infusion of 0.5 ml/min. The test compound was administered orally by gavage to another group of dogs at dose levels of 10 to 40 mg/kg. The test compound was prepared in distilled water to give a total volume of 20 ml. Following the administration of the test compound, the heart rate, number of ectopic cardiac beats per min, and the percent ectopic beats (ectopic beats/BR X100) were recorded at 15 min. intervals. The compound was considered active if it abolished the ectopic ventricular frequency and caused a return to normal sinus rhythm within 2 hours of administration.
# [2] = system: Ouabain Induced Arrhythmias; test: Ouabain induced arrhythmias, correction by i.v. infusion; assay type: in vivo, adult mongrel dogs; conditions: Ouabain-Induced arrhythmia, dogs under barbiturate anesthesia, infusion into femoral vein at 1 mg/kg/min
# Procedure: correction of existing cardiac arrhythmias of ventri- cular origin was carried out on (1) adult mongrel dogs which were under barbiturate anesthesia during the test. A Grass Model 7 polygraph was used for recording femoral arterial blood pressure (Statham P23AC transducer) and the electrocardiogram (Grass 7P4 preamplifier). Ouabain was given intravenously in an initial dose of 40 µg/kg and in a second dose of […] 30 minutes after the first dose and in subsequent doses of 10 µg/kg which were repeated at 1.5 min. intervals as required for producing cardiac arrhythmias that persisted for at least 15 minutes. When the arrhythmias were established, the test compounds were administered by infusion (Harvard Model 942 Infusion Pump) into a femoral vein at a rate of 1 mg/kg/min. Concentration of compound was adjusted according to the weight of the dog to allow a volume infusion of 1 ml/min. The compound was considered to be active as an antiarrhythmic agent if reversion to the sinus rhythm occurred and this was maintained for at least 30 min.
substance,measurement,setting,value
N'-[2-(Diethylamino)ethyl]-N-(1-methylethyl)-N[2-(phenylsulphonyl)ethyl]urea maleate[1:1] [Example 9],Correcting Dose Range,[1],2 to 5 mg/kg
same,Correcting Dose Range,[2],4 to 15 mg/kg
